Data from ChEMBL document CHEMBL2086348, “Amide-based derivatives of β-alanine hydroxamic acid as histone deacetylase inhibitors: attenuation of potency through resonance effects” (Bioorg Med Chem Lett, 2012).

Legend:
[1] = Antiproliferative activity against human BE(2)-C cells at 50 uM after 72 hrs by Alamar blue assay; assay type: functional
[2] = target: T1, Histone deacetylase 1 (Homo sapiens, UniProt Q13547); test: Inhibition of HDAC1 by fluorometric assay
[3] = target: T1, Histone deacetylase 1; test: Inhibition of HDAC1 at 250 uM by fluorometric assay
[4] = target: Histone deacetylase (Homo sapiens) (UniProt Q13547+O15379+Q9UBN7+Q92769+Q9UQL6+Q8WUI4+Q9BY41+Q96DB2+P56524+Q9UKV0+Q969S8); test: Inhibition of HDAC in human HeLa cell extracts at 1 uM; assay type: protein assay
[5] = Antiproliferative activity against human BE(2)-C cells after 72 hrs by Alamar blue assay; assay type: functional, cell-based

T1 sequence (Q13547 whole entry): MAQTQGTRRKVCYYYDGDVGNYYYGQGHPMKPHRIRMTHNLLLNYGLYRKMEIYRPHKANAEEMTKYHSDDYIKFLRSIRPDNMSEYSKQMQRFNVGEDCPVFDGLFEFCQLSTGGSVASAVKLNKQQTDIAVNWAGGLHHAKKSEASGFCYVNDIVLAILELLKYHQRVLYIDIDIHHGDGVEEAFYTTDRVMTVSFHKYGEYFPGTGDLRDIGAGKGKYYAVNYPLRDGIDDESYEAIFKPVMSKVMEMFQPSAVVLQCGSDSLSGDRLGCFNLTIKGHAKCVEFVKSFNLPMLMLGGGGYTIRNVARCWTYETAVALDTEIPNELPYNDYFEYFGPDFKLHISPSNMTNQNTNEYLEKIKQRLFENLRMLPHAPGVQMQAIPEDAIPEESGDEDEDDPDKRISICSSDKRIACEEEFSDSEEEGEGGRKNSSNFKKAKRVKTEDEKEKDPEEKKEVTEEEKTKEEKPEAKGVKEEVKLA

SMILES | IC50 [2] [µM] | inhibition [3] [%] | inhibition [4] [%] | Activity [1] [%] | IC70 [5] [µM]
Cc1ccc(CCC(=O)NCCC(=O)NO)cc1 | 80 |  |  | 72.4 | 
CN(C)c1ccc(/C=C/C(=O)NCCC(=O)NO)cc1 | > 250 | 40 |  | 57 | 
Cc1ccc(OCC(=O)NCCC(=O)NO)cc1 | 84 |  |  | 80.4 | 
CC(/C=C/C(=O)NO)=C\[C@@H](C)C(=O)c1ccc(N(C)C)cc1 [TRICHOSTATIN] |  |  |  |  | 0.05

Continued by falling IC50 [2], values first:

IC50 [2] [µM] | inhibition [3] [%] | inhibition [4] [%] | SMILES | Activity [1] [%] | IC70 [5] [µM]
67 |  | 19 | O=C(/C=C/c1ccccc1)NCCC(=O)NO | 88.6 | 
39.4 |  |  | O=C(CCNC(=O)Cc1ccc([N+](=O)[O-])cc1)NO | 87.9 | 
38 |  |  | CN(C)c1ccc(CC(=O)NCCC(=O)NO)cc1 | 62.8 | 
